Data as given in publication PMC5218480 (PLoS ONE, 2017).

System: MV-4-11 cells
Assay: Gene expression microarray analysis (Affymetrix PrimeView) and GSEA
Format: cell-based, human
Set-up: RFU PODN (11730768_x_at) / Fold change /veh PODN (11730768_x_at) / RFU LINC00158 (11744669_a_at) / Fold change /veh LINC00158 (11744669_a_at) / RFU DUSP10 (11751237_a_at) / Fold change /veh DUSP10 (11751237_a_at) / RFU ID3 (11757404_x_at) / Fold change /veh ID3 (11757404_x_at) / RFU PLEKHG5 (11737974_s_at) / Fold change /veh PLEKHG5 (11737974_s_at) / RFU LRRC4B (11730491_at) / Fold change /veh LRRC4B (11730491_at) / RFU GIMAP4 (11747438_a_at) / Fold change /veh GIMAP4 (11747438_a_at) / RFU KRT8 (11758183_x_at) / Fold change /veh KRT8 (11758183_x_at) / RFU CNN1 (11734310_a_at) / Fold change /veh CNN1 (11734310_a_at) / RFU VPS37D (11726825_at) / Fold change /veh VPS37D (11726825_at) / RFU C10orf10 (11716522_x_at) / Fold change /veh C10orf10 (11716522_x_at) / RFU KIR2DL2 /// KIR2DL4 /// KIR2DL5A /// KIR2DL5B /// KIR2DS1 /// KIR2DS2 /// KIR2DS3 /// KIR2DS4 /// KIR3DL3 /// KIR3DL3 /// KIR3DS1 (11738374_at) / Fold change /veh KIR2DL2 /// KIR2DL4 /// KIR2DL5A /// KIR2DL5B /// KIR2DS1 /// KIR2DS2 /// KIR2DS3 /// KIR2DS4 /// KIR3DL3 /// KIR3DL3 /// KIR3DS1 (11738374_at) / RFU C1QL1 (11718748_at) / Fold change /veh C1QL1 (11718748_at) / RFU TMPRSS4 (11747572_a_at) / Fold change /veh TMPRSS4 (11747572_a_at) / RFU HAMP (11756126_x_at) / Fold change /veh HAMP (11756126_x_at) / RFU RNFT2 (11725882_a_at) / Fold change /veh RNFT2 (11725882_a_at) / RFU NR4A2 (11747474_a_at) / Fold change /veh NR4A2 (11747474_a_at) / RFU ABCC12 (11746883_a_at) / Fold change /veh ABCC12 (11746883_a_at) / RFU TMEM136 (11760407_x_at) / Fold change /veh TMEM136 (11760407_x_at) / RFU CLDN22 /// WWC2 (11732394_at) / Fold change /veh CLDN22 /// WWC2 (11732394_at) / RFU HLA-DPB1 (11760878_x_at) / Fold change /veh HLA-DPB1 (11760878_x_at) / RFU SPINT1 (11716480_a_at) / Fold change /veh SPINT1 (11716480_a_at) / RFU GAP43 (11754022_s_at) / Fold change /veh GAP43 (11754022_s_at) / RFU A4GNT (11735810_at) / Fold change /veh A4GNT (11735810_at) / RFU PRB3 (11715151_x_at) / Fold change /veh PRB3 (11715151_x_at) / RFU TUBB4B (11761932_at) / Fold change /veh TUBB4B (11761932_at) / RFU CAPN14 (11732068_a_at) / Fold change /veh CAPN14 (11732068_a_at) / RFU TMCC2 (11721928_a_at) / Fold change /veh TMCC2 (11721928_a_at) / RFU IRGQ (11745062_a_at) / Fold change /veh IRGQ (11745062_a_at) / RFU FAM174B (11720279_a_at) / Fold change /veh FAM174B (11720279_a_at) / RFU TMPRSS4 (11748680_a_at) / Fold change /veh TMPRSS4 (11748680_a_at) / RFU FAM212B (11763350_a_at) / Fold change /veh FAM212B (11763350_a_at) / RFU PLEKHG5 (11743358_a_at) / Fold change /veh PLEKHG5 (11743358_a_at) / RFU ZSCAN30 (11745921_a_at) / Fold change /veh ZSCAN30 (11745921_a_at) / RFU CMKLR1 (11741424_a_at) / Fold change /veh CMKLR1 (11741424_a_at) / RFU LOC101060620 /// MAPK8IP1 (11723275_at) / Fold change /veh LOC101060620 /// MAPK8IP1 (11723275_at) / RFU SPTSSB (11747773_x_at) / Fold change /veh SPTSSB (11747773_x_at) / RFU PRSS12 (11739890_at) / Fold change /veh PRSS12 (11739890_at) / RFU BIN1 (11741810_x_at) / Fold change /veh BIN1 (11741810_x_at) / RFU WNT11 (11732464_a_at) / Fold change /veh WNT11 (11732464_a_at) / RFU C10orf10 (11716521_a_at) / Fold change /veh C10orf10 (11716521_a_at) / RFU C5orf56 (11738089_at) / Fold change /veh C5orf56 (11738089_at) / RFU CYB561 (11721691_x_at) / Fold change /veh CYB561 (11721691_x_at) / RFU ANKRD19P (11752326_a_at) / Fold change /veh ANKRD19P (11752326_a_at) / RFU OR2T12 /// OR2T33 /// OR2T8 (11738714_s_at) / Fold change /veh OR2T12 /// OR2T33 /// OR2T8 (11738714_s_at) / RFU VCAN (11748164_a_at) / Fold change /veh VCAN (11748164_a_at) / RFU JSRP1 (11732532_at) / Fold change /veh JSRP1 (11732532_at) / RFU KRTAP10-11 (11738290_x_at) / Fold change /veh KRTAP10-11 (11738290_x_at) / RFU MYO3A (11730013_a_at) / Fold change /veh MYO3A (11730013_a_at) / RFU EBF3 (11725865_a_at) / Fold change /veh EBF3 (11725865_a_at) / RFU CAMK2N1 (11719241_x_at) / Fold change /veh CAMK2N1 (11719241_x_at) / RFU C5orf56 (11738088_a_at) / Fold change /veh C5orf56 (11738088_a_at) / RFU OLFML3 (11715873_a_at) / Fold change /veh OLFML3 (11715873_a_at) / RFU LOC100653217 /// NTM (11731650_a_at) / Fold change /veh LOC100653217 /// NTM (11731650_a_at) / RFU MAPK11 (11762145_a_at) / Fold change /veh MAPK11 (11762145_a_at) / RFU FIZ1 (11724087_x_at) / Fold change /veh FIZ1 (11724087_x_at) / RFU OASL (11726364_x_at) / Fold change /veh OASL (11726364_x_at) / RFU SOX15 (11748057_x_at) / Fold change /veh SOX15 (11748057_x_at) / RFU CD79A (11719716_a_at) / Fold change /veh CD79A (11719716_a_at) / RFU HIST1H1D (11736915_at) / Fold change /veh HIST1H1D (11736915_at) / RFU CASKIN2 (11723855_a_at) / Fold change /veh CASKIN2 (11723855_a_at) / RFU LOC730098 (11760151_x_at) / Fold change /veh LOC730098 (11760151_x_at) / RFU OR4N2 (11742367_at) / Fold change /veh OR4N2 (11742367_at) / RFU PRRT2 (11749266_a_at) / Fold change /veh PRRT2 (11749266_a_at) / RFU SNX32 (11753110_a_at) / Fold change /veh SNX32 (11753110_a_at) / RFU CDHR5 (11726645_a_at) / Fold change /veh CDHR5 (11726645_a_at) / RFU RCAN1 (11760418_a_at) / Fold change /veh RCAN1 (11760418_a_at) / RFU FAM167A (11723789_a_at) / Fold change /veh FAM167A (11723789_a_at) / RFU FAM26E (11764081_at) / Fold change /veh FAM26E (11764081_at) / RFU ISYNA1 (11749810_s_at) / Fold change /veh ISYNA1 (11749810_s_at) / RFU ACY1 (11761880_at) / Fold change /veh ACY1 (11761880_at) / RFU 11764098_at / Fold change /veh 11764098_at / RFU SAMD14 (11745864_x_at) / Fold change /veh SAMD14 (11745864_x_at) / RFU NPB (11741838_a_at) / Fold change /veh NPB (11741838_a_at) / RFU TMPRSS6 (11731388_a_at) / Fold change /veh TMPRSS6 (11731388_a_at) / RFU KRTAP10-2 (11738614_at) / Fold change /veh KRTAP10-2 (11738614_at) / RFU ARHGAP8 /// PRR5-ARHGAP8 (11727945_x_at) / Fold change /veh ARHGAP8 /// PRR5-ARHGAP8 (11727945_x_at) / RFU KRTAP5-7 /// NADSYN1 (11734609_at) / Fold change /veh KRTAP5-7 /// NADSYN1 (11734609_at) / RFU RASL12 (11751679_a_at) / Fold change /veh RASL12 (11751679_a_at) / RFU CDKN2B (11736163_a_at) / Fold change /veh CDKN2B (11736163_a_at) / RFU PRF1 (11729649_at) / Fold change /veh PRF1 (11729649_at) / RFU, ZNF638 /// ZNF638-IT1 / Fold change vs veh, ZNF638 /// ZNF638-IT1 / RFU, PANK3 / Fold change vs veh, PANK3 / RFU, SH3YL1 / Fold change vs veh, SH3YL1 / RFU, ZEB2 / Fold change vs veh, ZEB2 / RFU, NRIP1 / Fold change vs veh, NRIP1 / RFU, PTTG1IP / Fold change vs veh, PTTG1IP / RFU, CAPN2 / Fold change vs veh, CAPN2 / RFU, MED14 / Fold change vs veh, MED14 / RFU, SNORA58 / Fold change vs veh, SNORA58 / RFU, C1orf63 / Fold change vs veh, C1orf63 / RFU, LRRFIP1 / Fold change vs veh, LRRFIP1 / RFU, NDUFAF7 / Fold change vs veh, NDUFAF7 / RFU, SLC12A2 / Fold change vs veh, SLC12A2 / RFU, IBTK / Fold change vs veh, IBTK / RFU, ESF1 / Fold change vs veh, ESF1 / Fold change vs veh, TMEM50B / RFU, TAOK1 / Fold change vs veh, TAOK1 / RFU, ACBD3 / Fold change vs veh, ACBD3 / RFU, TMA16 / Fold change vs veh, TMA16 / RFU, RWDD3 / Fold change vs veh, RWDD3 / RFU, BCAT1 / Fold change vs veh, BCAT1 / RFU, EDEM3 / Fold change vs veh, EDEM3 / RFU, TMEM33 / Fold change vs veh, TMEM33 / RFU, WDR75 / Fold change vs veh, WDR75 / RFU, AHCTF1 / Fold change vs veh, AHCTF1 / RFU, TFRC / Fold change vs veh, TFRC / RFU, ZDHHC17 / Fold change vs veh, ZDHHC17 / RFU, NOM1 / Fold change vs veh, NOM1 / RFU, ARL8B / Fold change vs veh, ARL8B / RFU, ZBTB11 / Fold change vs veh, ZBTB11 / RFU, TAMM41 / Fold change vs veh, TAMM41 / RFU, KIAA1704 /// LOC100996395 / Fold change vs veh, KIAA1704 /// LOC100996395 / RFU, ING1 / Fold change vs veh, ING1 / RFU, TRMT61B / Fold change vs veh, TRMT61B / RFU, FUBP3 / Fold change vs veh, FUBP3 / RFU, TP53 / Fold change vs veh, TP53 / RFU, TNKS2 / Fold change vs veh, TNKS2 / RFU, ZFP14 / Fold change vs veh, ZFP14 / RFU, ACTR2 / Fold change vs veh, ACTR2 / RFU, PPP3R1 / Fold change vs veh, PPP3R1 / RFU, PIK3R1 / Fold change vs veh, PIK3R1 / RFU, HNRNPA1 / Fold change vs veh, HNRNPA1 / RFU, RNF170 / Fold change vs veh, RNF170 / RFU, ZNF28 / Fold change vs veh, ZNF28 / RFU, RNGTT / Fold change vs veh, RNGTT / RFU, OGT / Fold change vs veh, OGT / RFU, BRD1 / Fold change vs veh, BRD1 / RFU, MARS / Fold change vs veh, MARS / RFU, ZNF655 / Fold change vs veh, ZNF655 / RFU, FAHD1 / Fold change vs veh, FAHD1 / RFU, BDP1 / Fold change vs veh, BDP1 / RFU, LRRCC1 / Fold change vs veh, LRRCC1 / RFU, ARID1A / Fold change vs veh, ARID1A / RFU, ZNF146 / Fold change vs veh, ZNF146 / RFU, ZNF330 / Fold change vs veh, ZNF330 / RFU, GPN3 / Fold change vs veh, GPN3 / RFU, C9orf123 / Fold change vs veh, C9orf123 / RFU, N4BP2L2 / Fold change vs veh, N4BP2L2 / RFU, ARFIP1 / Fold change vs veh, ARFIP1 / RFU, FAM179B / Fold change vs veh, FAM179B / RFU, BCL10 / Fold change vs veh, BCL10 / RFU, UHRF1BP1L / Fold change vs veh, UHRF1BP1L / RFU, BET1 / Fold change vs veh, BET1 / RFU, CNOT2 / Fold change vs veh, CNOT2 / RFU, ZNF268 / Fold change vs veh, ZNF268 / Fold change vs veh, ZNF507 / RFU, DGCR2 / Fold change vs veh, DGCR2 / RFU, WDSUB1 / Fold change vs veh, WDSUB1 / Fold change vs veh, HSP90B1 /// MIR3652 / RFU, ADSS / Fold change vs veh, ADSS / RFU, GK / Fold change vs veh, GK / RFU, ZNF148 / Fold change vs veh, ZNF148 / RFU, TAF9 / Fold change vs veh, TAF9 / RFU, SLC1A5 / Fold change vs veh, SLC1A5 / RFU, SLMO2 / Fold change vs veh, SLMO2 / RFU, ABCC4 / Fold change vs veh, ABCC4 / RFU, LOC101060439 /// RAP1B / Fold change vs veh, LOC101060439 /// RAP1B / RFU, RFX7 / Fold change vs veh, RFX7 / RFU, GTPBP10 / Fold change vs veh, GTPBP10 / RFU, CNEP1R1 / Fold change vs veh, CNEP1R1 / RFU, BIVM-ERCC5 /// ERCC5 / Fold change vs veh, BIVM-ERCC5 /// ERCC5 / RFU, ILF3 / Fold change vs veh, ILF3 / RFU 11762660_at / Fold change /veh 11762660_at / RFU VCAN (11757783_s_at) / Fold change /veh VCAN (11757783_s_at) / RFU DDX43 (11728927_at) / Fold change /veh DDX43 (11728927_at) / RFU KRT8 (11758188_x_at) / Fold change /veh KRT8 (11758188_x_at) / RFU NKD1 (11759106_at) / Fold change /veh NKD1 (11759106_at) / RFU SRD5A1 (11742802_a_at) / Fold change /veh SRD5A1 (11742802_a_at) / RFU TPSAB1 /// TPSB2 (11721975_s_at) / Fold change /veh TPSAB1 /// TPSB2 (11721975_s_at) / RFU GSTM3 (11746129_a_at) / Fold change /veh GSTM3 (11746129_a_at) / RFU IL23R (11737362_x_at) / Fold change /veh IL23R (11737362_x_at) / RFU TMEM51 (11727254_a_at) / Fold change /veh TMEM51 (11727254_a_at) / RFU PIWIL2 (11732686_x_at) / Fold change /veh PIWIL2 (11732686_x_at) / RFU ORM1 (11744905_x_at) / Fold change /veh ORM1 (11744905_x_at) / RFU CCDC152 (11743942_at) / Fold change /veh CCDC152 (11743942_at) / RFU ECM1 (11717891_a_at) / Fold change /veh ECM1 (11717891_a_at) / RFU IL23R (11748794_a_at) / Fold change /veh IL23R (11748794_a_at) / RFU TNFAIP8L3 (11732012_x_at) / Fold change /veh TNFAIP8L3 (11732012_x_at) / RFU MBOAT4 (11741988_at) / Fold change /veh MBOAT4 (11741988_at) / RFU 11764193_at / Fold change /veh 11764193_at / RFU TMEM53 (11763286_at) / Fold change /veh TMEM53 (11763286_at) / RFU MAGEB2 (11727129_at) / Fold change /veh MAGEB2 (11727129_at) / RFU TMEM200A (11744735_a_at) / Fold change /veh TMEM200A (11744735_a_at) / RFU CCDC152 (11751479_a_at) / Fold change /veh CCDC152 (11751479_a_at) / RFU FAM211A (11726209_a_at) / Fold change /veh FAM211A (11726209_a_at) / RFU RGS16 (11746705_a_at) / Fold change /veh RGS16 (11746705_a_at) / RFU VCAN (11755009_s_at) / Fold change /veh VCAN (11755009_s_at) / RFU RHOB (11743442_s_at) / Fold change /veh RHOB (11743442_s_at) / RFU RGS16 (11720943_a_at) / Fold change /veh RGS16 (11720943_a_at) / RFU RGS16 (11720944_at) / Fold change /veh RGS16 (11720944_at) / RFU, VPS4B / Fold change vs veh, VPS4B / RFU, CREB1 / Fold change vs veh, CREB1 / RFU, DNAJC13 / Fold change vs veh, DNAJC13 / RFU, GNAQ / Fold change vs veh, GNAQ / RFU, CDK5R1 / Fold change vs veh, CDK5R1 / RFU, ZRANB3 / Fold change vs veh, ZRANB3 / RFU, CUL4A / Fold change vs veh, CUL4A / RFU, CCNY / Fold change vs veh, CCNY / RFU, UFL1 / Fold change vs veh, UFL1 / RFU, COG3 / Fold change vs veh, COG3 / RFU, DIAPH2 / Fold change vs veh, DIAPH2 / RFU, SKA2 / Fold change vs veh, SKA2 / RFU, AFF3 / Fold change vs veh, AFF3 / RFU, LMF1 / Fold change vs veh, LMF1 / RFU, IPO11 / Fold change vs veh, IPO11 / RFU, DFFB / Fold change vs veh, DFFB / RFU, FOXP1 / Fold change vs veh, FOXP1 / RFU, CARD8 / Fold change vs veh, CARD8 / RFU, STRN3 / Fold change vs veh, STRN3 / RFU, ADK / Fold change vs veh, ADK / RFU, RASSF2 / Fold change vs veh, RASSF2 / RFU, WIPF1 / Fold change vs veh, WIPF1 / RFU, LARP1B / Fold change vs veh, LARP1B / RFU, RASA1 / Fold change vs veh, RASA1 / RFU, RB1 / Fold change vs veh, RB1 / RFU, PPFIA1 / Fold change vs veh, PPFIA1 / RFU, MAT2A / Fold change vs veh, MAT2A / RFU, CCT5 / Fold change vs veh, CCT5 / RFU, WDR92 / Fold change vs veh, WDR92 / RFU, CUX1 / Fold change vs veh, CUX1 / RFU, TTC7A / Fold change vs veh, TTC7A / RFU, TMEM135 / Fold change vs veh, TMEM135 / RFU, DEPTOR / Fold change vs veh, DEPTOR / RFU, CPM / Fold change vs veh, CPM / RFU, DNAJB6 / Fold change vs veh, DNAJB6 / RFU, CACNA2D3 / Fold change vs veh, CACNA2D3 / RFU, DTX4 / Fold change vs veh, DTX4 / RFU, TFCP2 / Fold change vs veh, TFCP2 / RFU, GMCL1 /// GMCL1P1 / Fold change vs veh, GMCL1 /// GMCL1P1 / RFU, AEBP2 / Fold change vs veh, AEBP2 / RFU, SNHG1 /// SNORD22 /// SNORD25 /// SNORD26 /// SNORD27 /// SNORD28 /// SNORD29 /// SNORD31 / Fold change vs veh, SNHG1 /// SNORD22 /// SNORD25 /// SNORD26 /// SNORD27 /// SNORD28 /// SNORD29 /// SNORD31 / Fold change (Aza/veh), C12orf56 (ProbeSet 11735607_a_at) / Fold change (ACY-1035/veh), C12orf56 (ProbeSet 11735607_a_at) / Fold change (Aza/veh), FGFR1OP (ProbeSet 11751329_s_at) / Fold change (ACY-1035/veh), FGFR1OP (ProbeSet 11751329_s_at) / Fold change (Aza/veh), VPS36 (ProbeSet 11739960_a_at) / Fold change (ACY-1035/veh), VPS36 (ProbeSet 11739960_a_at) / RFU SYPL1 (11715823_x_at) / Fold change /veh SYPL1 (11715823_x_at) / RFU IGFBP7 (11715501_s_at) / Fold change /veh IGFBP7 (11715501_s_at) / RFU REEP3 (11722064_at) / Fold change /veh REEP3 (11722064_at) / RFU IGLL1 (11728026_x_at) / Fold change /veh IGLL1 (11728026_x_at): dose or concentration left out as unconfirmed
Details: MV-4-11 cells, 48 hours

## Nc1ncn([C@@H]2O[C@H](CO)[C@@H](O)[C@H]2O)c(=O)n1 [azacitidine]
  RFU DUSP10 (11751237_a_at): 30.26 RFU
